The text below walks through data of ChEMBL document CHEMBL3508693 (2016).

Bounds are passed on as bounds.

A short description of data set [1]: AUC of SPP100 following single intravenous dose of [14C] aliskiren hemifumarate at 1 mg.Kg-1 level in marmoset. In kind it is ADME, organism-based, Callithrix jacchus, Plasma. To be noted: in vivo.
For another data set, the target named is CYP2E1 (Homo sapiens, UniProt P05181). Briefly: Inhibition of CYP2E1 in human liver microsomes from 10 healthy donors at 200 uM aliskiren (SPP100). The data set is classed as ADME, Microsome. The arrangement: conc 200 uM. The note with it: probe chlorzoxazone (6-hydroxylation). For orientation: Liver microsomes are vesicles of endoplasmic reticulum, rich in cytochrome P450 enzymes.

Data set [2] in a line: % SPP100 in faeces following single oral dose of 300 mg [14C]SPP100 studied in healthy men. The note with it: human, in vivo, at 300 mg. The data set is classed as ADME, organism-based, Feces.
The target in data set [3] is T1, CYP2C9 (Homo sapiens, UniProt P11712). The data set can be described thus: Inhibitory activity of 20 uM SPP100 on 258 Pmoles of cDNA-derived CYP2C9 enzyme in microsome prepared from human lymphoblastoid cell line. In kind it is ADME, microsomes. Further details: conc 20 uM, interact cpd conc 6 uM. To be noted: probe diclofenac.
Data set [4] is described as follows: % of radioactivity recovered as aliskiren in urine following intravenous administration of [14C] aliskiren hemifumarate at 10 mg.Kg-1 level in rat. To be noted: in vivo. In kind it is ADME, organism-based, Albino HAN:WIST.
Data set [5] can be described thus: %Unchanged aliskiren in faeces following 10 day repeated oral administration of [14C] aliskiren hemifumarate at 100 mg.Kg-1 level studied in rat. The note with it: in vivo, 240 h. The data set is classed as ADME, organism-based, Albino HAN:WIST, Feces.
The target of data set [6] is T1, CYP2C9. Briefly: Inhibitory activity of 20 uM SPP100 on 259 Pmoles of cDNA-derived CYP2C9 enzyme in microsome prepared from human lymphoblastoid cell line. Further details: conc 20 uM, interact cpd conc 6 uM. To be noted: probe diclofenac. In kind it is ADME, microsomes.
The next data set has as its target T2, CYP1A2 (Homo sapiens, UniProt P05177).
T2 sequence (P05177 whole entry): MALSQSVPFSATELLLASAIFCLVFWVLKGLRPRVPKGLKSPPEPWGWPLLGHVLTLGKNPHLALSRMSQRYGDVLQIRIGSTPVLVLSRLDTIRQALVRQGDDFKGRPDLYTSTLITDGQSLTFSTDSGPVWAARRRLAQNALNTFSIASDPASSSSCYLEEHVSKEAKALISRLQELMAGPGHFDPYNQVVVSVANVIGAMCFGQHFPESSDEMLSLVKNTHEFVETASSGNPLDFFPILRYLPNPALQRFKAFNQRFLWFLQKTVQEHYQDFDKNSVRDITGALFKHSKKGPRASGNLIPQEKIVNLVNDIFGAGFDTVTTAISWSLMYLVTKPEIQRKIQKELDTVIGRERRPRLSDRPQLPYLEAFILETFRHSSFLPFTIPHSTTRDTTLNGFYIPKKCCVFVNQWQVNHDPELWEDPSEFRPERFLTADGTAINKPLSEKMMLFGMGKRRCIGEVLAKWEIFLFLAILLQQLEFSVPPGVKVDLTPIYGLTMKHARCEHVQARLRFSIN
Briefly: Inhibitory activity of 200 uM SPP100 on 548 Pmoles of cDNA-derived CYP1A2 enzyme in microsome prepared from human lymphoblastoid cell line. The note with it: probe phenacetin. Further details: conc 200 uM, interact cpd conc 50 uM. In kind it is ADME, microsomes.

The nature of data set [7]: AUC/dose (0-168h) of total radioactivity following single oral administration of [14C] aliskiren hemifumarate at 3 mg.Kg-1 level in marmoset. In kind it is ADME, organism-based, Callithrix jacchus, Plasma. The note with it: in vivo.
Data set [8] in a line: Total excretion (0-72h) of radioactivity in urine, faeces and cage wash following single oral dose of 500 mg.Kg-1 [14C] aliskiren hemifumarate in mouse. The data set is classed as ADME, organism-based, TgRasH2, Urine/Feces. To be noted: in vivo.
The next data set concerns the target Cytochrome P450 2D6 (Homo sapiens, UniProt P10635). The data set can be described thus: Activity of human recombinant CYP2D6 assessed as enzyme contribution (% total relative CL) towards [14C]SPP100 hemifumarate metabolism in human liver microsome. In kind it is ADME. To be noted: microsomes.
The nature of data set [9]: Mean excretion of radioactivity (0-24h) in urine and faeces following single intravenous dose of 10 mg.Kg-1 [14C] aliskiren hemifumarate in rat. In kind it is ADME, organism-based, Albino HAN:WIST, Urine/Feces. The note with it: in vivo.
A further data set concerns the target Cytochrome P450 3A4/3A5 (Homo sapiens, UniProt P08684+P20815). Briefly: Estimated contribution of CYP3A4/5 to oxidative metabolism of [14C] aliskiren hemifumarate based on studies with microsomes from baculovirus-infected insect cells expressing recombinant human CYP450s and studies with pooled human liver microsomes from 22 donors. The data set is classed as ADME, Microsome.

The nature of data set [10]: Excretion of radioactivity (24-48h) in faeces following single intravenous dose of 10 mg.Kg-1 [14C] aliskiren hemifumarate in mouse. In kind it is ADME, organism-based, TgRasH2, Feces. To be noted: in vivo.
Data set [11] is described as follows: Excretion of radioactivity (48-72h) in urine following single intravenous dose of 10 mg.Kg-1 [14C] aliskiren hemifumarate in rat. In kind it is ADME, organism-based, Albino HAN:WIST. The note with it: in vivo.
Data set [12] is described as follows: Excretion of radioactivity (0-96h) in faeces following single oral dose of 100 mg.Kg-1 [14C] aliskiren hemifumarate in rat. The data set is classed as ADME, organism-based, Albino HAN:WIST, Feces. To be noted: in vivo.
Data set [13] in a line: Cmax (0-168h) of total radioactivity following single intravenous administration of [14C] aliskiren hemifumarate at 1 mg.Kg-1 level in marmoset. The data set is classed as ADME, organism-based, Callithrix jacchus, Plasma. The note with it: in vivo.
A short description of data set [14]: % of radioactivity (48h) recovered in faeces of receiver rat following duodenal infusion of radioactivity through bile from donor rat treated with single intravenous administration of 10 mg.Kg-1 [14C] aliskiren hemifumarate. The data set is classed as ADME, organism-based, HAN:WIST(SPF), Feces. To be noted: in vivo.
In the next data set the target is Cytochrome P450 3A4 (Homo sapiens, UniProt P08684). The data set can be described thus: Metabolic clearance (ul.min.nmol-1 CYP) of aliskiren hemifumarate for CYP3A4 was determined in human liver microsome incubated with [14C]SPP100 hemifumarate. In kind it is ADME. The note with it: microsomes.
Data set [15] can be described thus: Cmin of aliskiren hemifumarate following repeated oral administration of [14C] aliskiren hemifumarate at 100 mg.Kg-1 level studied after first dosing in rat. To be noted: in vivo. The data set is classed as ADME, organism-based, Albino HAN:WIST.
A short description of data set [16]: Effect of 2 week oral dosing of aliskiren hemifumarate at 10 mg.Kg-1 level on blood urea nitrogen level in male Callithrix jacchus. In kind it is toxicity, organism-based, Plasma. To be noted: marmoset, 336 h.
Data set [17] can be described thus: Cmax of aliskiren hemifumarate following 2 week oral dosing of aliskiren hemifumarate at 50 mg.Kg-1 level studied on day 14 in female Callithrix jacchus. In kind it is ADME, organism-based. The note with it: marmoset, plasma.
A short description of data set [18]: Tmax of aliskiren hemifumarate following 8 day once-daily dosing of SPP100B oral solution at 40 mg level studied on day 8 in men. The data set is classed as ADME, organism-based. The note with it: male, human, plasma.
Data set [19] is described as follows: AUC/dose (0-168h) of unlabeled aliskiren hemifumarate following single intravenous administration of aliskiren hemifumarate at 1 mg.Kg-1 level in marmoset. To be noted: in vivo. The data set is classed as ADME, organism-based, Callithrix jacchus, Plasma.
Data set [20] can be described thus: Plasma clearance (0-168h) of unlabeled aliskiren hemifumarate following single intravenous administration of aliskiren hemifumarate at 1 mg.Kg-1 level in marmoset. In kind it is ADME, organism-based, Callithrix jacchus. To be noted: in vivo.
Data set [21] can be described thus: t1/2 of aliskiren hemifumarate following 2 week oral dosing of aliskiren hemifumarate at 100 mg.Kg-1 level studied on day 14 in male Callithrix jacchus. In kind it is ADME, organism-based. The note with it: marmoset, plasma.
The nature of data set [22]: Cmax/dose of aliskiren hemifumarate following 4 week oral dietary dosing of aliskiren hemifumarate at 2000 mg.Kg-1 level in female mouse. In kind it is ADME, organism-based, CB6F1-TGrasH2. The note with it: in vivo, 672 h.
Data set [23] can be described thus: AUC(0-24)/dose of aliskiren hemifumarate following repeated oral administration of [14C] aliskiren hemifumarate at 100 mg.Kg-1 level studied in rat. In kind it is ADME, organism-based, Albino HAN:WIST, Plasma. To be noted: in vivo.
The nature of data set [24]: Cmax of aliskiren hemifumarate following 8 day once-daily dosing of SPP100B oral solution at 160 mg level studied on day 8 in men. In kind it is ADME, organism-based. The note with it: male, human, plasma.
Data set [25] in a line: Effect of 2 week oral dosing of aliskiren hemifumarate at 100 mg.Kg-1 level on hematological parameter values in female Callithrix jacchus. The data set is classed as toxicity, organism-based, Plasma. To be noted: marmoset, in vivo, 336 h.
A short description of data set [26]: AUC (0-24h) of aliskiren hemifumarate following 4 week oral dietary dosing of aliskiren hemifumarate at 2000 mg.Kg-1 level in male mouse. In kind it is ADME, organism-based. The note with it: CB6F1-TGrasH2, mouse, plasma.

T1 sequence (P11712 whole entry): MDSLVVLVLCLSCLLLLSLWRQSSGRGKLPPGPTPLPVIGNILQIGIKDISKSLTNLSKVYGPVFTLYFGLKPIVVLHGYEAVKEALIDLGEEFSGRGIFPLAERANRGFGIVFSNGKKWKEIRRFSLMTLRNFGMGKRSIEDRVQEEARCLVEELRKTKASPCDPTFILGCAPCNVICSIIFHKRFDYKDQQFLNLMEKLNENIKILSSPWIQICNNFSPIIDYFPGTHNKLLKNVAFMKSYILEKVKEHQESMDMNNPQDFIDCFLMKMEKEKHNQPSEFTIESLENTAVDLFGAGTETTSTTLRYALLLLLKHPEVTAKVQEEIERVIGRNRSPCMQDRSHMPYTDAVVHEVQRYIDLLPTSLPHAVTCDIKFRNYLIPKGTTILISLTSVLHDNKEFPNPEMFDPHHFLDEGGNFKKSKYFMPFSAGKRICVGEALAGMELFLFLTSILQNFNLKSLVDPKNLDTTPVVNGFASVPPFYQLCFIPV
Sequence of CYP2E1 (P05181 whole entry): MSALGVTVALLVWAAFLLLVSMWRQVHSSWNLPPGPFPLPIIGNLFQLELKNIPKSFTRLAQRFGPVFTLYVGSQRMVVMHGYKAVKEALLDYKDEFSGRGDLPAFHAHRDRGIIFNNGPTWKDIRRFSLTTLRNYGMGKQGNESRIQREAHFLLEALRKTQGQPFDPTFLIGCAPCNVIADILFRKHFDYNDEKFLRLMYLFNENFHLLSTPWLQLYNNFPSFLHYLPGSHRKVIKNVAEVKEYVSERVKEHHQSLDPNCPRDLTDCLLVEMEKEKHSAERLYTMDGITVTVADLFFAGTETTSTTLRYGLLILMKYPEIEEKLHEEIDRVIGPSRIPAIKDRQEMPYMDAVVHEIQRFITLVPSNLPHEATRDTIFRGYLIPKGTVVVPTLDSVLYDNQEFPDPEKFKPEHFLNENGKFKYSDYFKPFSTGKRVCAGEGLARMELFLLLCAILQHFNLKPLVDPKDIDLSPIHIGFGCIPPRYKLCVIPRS
Sequence of Cytochrome P450 3A4 (P08684 whole entry): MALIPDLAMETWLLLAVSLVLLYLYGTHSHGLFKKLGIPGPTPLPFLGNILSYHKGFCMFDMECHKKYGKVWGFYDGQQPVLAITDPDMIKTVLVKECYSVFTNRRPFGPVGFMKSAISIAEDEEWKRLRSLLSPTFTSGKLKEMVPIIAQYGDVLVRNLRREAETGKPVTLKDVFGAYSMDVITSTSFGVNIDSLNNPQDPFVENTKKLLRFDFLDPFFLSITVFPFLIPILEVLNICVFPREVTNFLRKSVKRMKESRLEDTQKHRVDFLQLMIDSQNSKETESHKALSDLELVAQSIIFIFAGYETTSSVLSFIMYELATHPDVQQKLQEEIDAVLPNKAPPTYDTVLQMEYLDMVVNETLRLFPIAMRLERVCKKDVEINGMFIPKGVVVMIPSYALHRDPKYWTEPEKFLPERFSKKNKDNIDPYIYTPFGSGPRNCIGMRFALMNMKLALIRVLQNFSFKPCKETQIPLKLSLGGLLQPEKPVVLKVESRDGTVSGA
Sequence of Cytochrome P450 2D6 (P10635 whole entry): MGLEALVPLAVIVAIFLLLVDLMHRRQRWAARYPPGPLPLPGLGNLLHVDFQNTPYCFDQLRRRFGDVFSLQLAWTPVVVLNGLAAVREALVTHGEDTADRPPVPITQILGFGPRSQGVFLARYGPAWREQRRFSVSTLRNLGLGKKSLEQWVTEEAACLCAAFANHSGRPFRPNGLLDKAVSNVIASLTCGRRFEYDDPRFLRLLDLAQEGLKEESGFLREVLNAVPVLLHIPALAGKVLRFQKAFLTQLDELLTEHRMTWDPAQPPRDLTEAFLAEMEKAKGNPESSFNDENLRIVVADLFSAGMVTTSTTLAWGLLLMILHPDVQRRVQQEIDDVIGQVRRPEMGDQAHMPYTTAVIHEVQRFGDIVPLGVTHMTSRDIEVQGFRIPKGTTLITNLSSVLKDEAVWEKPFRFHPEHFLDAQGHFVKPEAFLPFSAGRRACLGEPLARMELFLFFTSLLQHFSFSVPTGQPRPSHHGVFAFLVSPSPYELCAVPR

Usually AUC stands for concentration integrated over time. What is called inhibition is the change of the read-out against control, counted positive when it falls. On to `COCCCOc1cc(C[C@@H](C[C@H](N)[C@@H](O)C[C@H](C(=O)NCC(C)(C)C(N)=O)C(C)C)C(C)C)ccc1OC`, for which the area under the curve (AUC) in data set [1] came out at 23806 ng·h/mL. Also, the inhibition at 200 µM was -12.8% on CYP2E1 and -6.4% at CYP1A2. Further, the Compound recovery in data set [2] was 77.5%; in data set [4], over 2%; in data set [5], 80%. For the same compound, the inhibition at 20 µM stood at 1.3% against CYP2C9 [3] and 0.9% against CYP2C9 [6].

One may read the Cmax as the peak of the concentration-time curve. On to `COCCCOc1cc(C[C@@H](C[C@H](N)[C@@H](O)C[C@H](C(=O)NCC([14CH3])([14CH3])C(N)=O)C(C)C)C(C)C)ccc1OC.O=C(O)/C=C/C(=O)O`, for which the AUC normalised in [7] is listed as 1.61 (umol.h/L)/(mg/kg). In addition, the Radiolabel recovery in data set [8] is recorded as 94.44%; in data set [9], 58.6%; in data set [10] it was 5.69%; in data set [11], 16.2%; in data set [12], 4.2%; in [14], 26.6%. Moreover, the Activity at Cytochrome P450 2D6 was 0.38%; at Cytochrome P450 3A4/3A5, 99.6%. Moreover, the Cmax in [13] was found to be 11.4 µM. On Cytochrome P450 3A4, the CL was 1013.1 µL·min/nmol.

A word on the Tmax: it is the time from dosing to the highest level. As usually defined, the half-life is the time needed for the level to fall by half in the phase considered. High values mean slow loss, low ones fast loss. One may read the AUC(0-t) as exposure summed from dosing to a finite time, without extrapolation to infinity. The low end stands for less exposure, the high end for more exposure. Consider `COCCCOc1cc(C[C@@H](C[C@H](N)[C@@H](O)C[C@H](C(=O)NCC(C)(C)C(N)=O)C(C)C)C(C)C)ccc1OC.COCCCOc1cc(C[C@@H](C[C@H](N)[C@@H](O)C[C@H](C(=O)NCC(C)(C)C(N)=O)C(C)C)C(C)C)ccc1OC.O=C(O)/C=C/C(=O)O` [ALISKIREN FUMARATE], for which the “Cmin(1)” value in data set [15] stood at 0.00347 µM. The compound also showed a BUN_CHANGE_BY in data set [16] of 5%. Further, the Cmax in [17] came to 10100 ng/mL; in data set [24] it was 39.1 ng/mL. Further, the time to peak (Tmax) in data set [18] was determined as 2.1 h. Besides, the AUC normalised in [19] is on record as 49 (umol.h/L)/(mg/kg). The same compound showed a Plasma clearance in [20] of 0.036 L·h/kg. Further, the half-life in data set [21] was 7.8 h. In [22], the Cmax normalised is given as 0.615 (ng/mL)/(mg/kg/day). Besides, in data set [23], the “AUC(0-24) normalised” value is 17.2 (nmol.h.L-1)/(mg/kg). In addition, the Change in hematology entry in data set [25] is “OUTCOME = Hematological parameter values did not differ from control values. No animals died during the study”. In addition, the exposure AUC(0-t) at 24 h in data set [26] turned out to be 7720 ng·h/mL.
